{"source": "patent US20100104659A1", "about": "“BENZOPYRANOPYRAZOLES” (priority 2006, published 2010)", "data": [{"test_system": "RKO human colon adenocarcinoma cells (RKOp27 subclone), proliferating", "assay": "Alamar Blue cell viability assay, RKO p27 uninduced (proliferating)", "details": "RKOp27, 72 h, read-out: −log EC50 [mol/l] RKO p27 uninduced (proliferating), anti-proliferative/cytotoxic activity (converted)", "units": {"EC50": "µM"}, "procedure": "The anti-proliferative/cytotoxic activity of the compounds described herein can be tested on subclones of RKO human colon adenocarcinoma cells (Schmidt et al., Oncogene 19, 2423-2429; 2000) using the Alamar Blue cell viability assay (described in O'Brien et al. Eur J Biochem 267, 5421-5426, 2000). The compounds are dissolved as 10 mM solutions in DMSO and subsequently diluted in semi-logarithmic steps. DMSO dilutions are further diluted 1:100 into Dulbecco's modified Eagle's medium (DMEM) containing 10% fetal calf serum to a final concentration twice as much as the final concentration in the test. RKO subclones are seeded into 96 well flat bottom plates at a density of 4000 cells per well in a volume of 50 μl per well. 24 hours after seeding the 50 μl each of the compound dilutions in DMEM medium are added into each well of the 96 well plate. Each compound dilution is tested as triplicates. Wells containing untreated control cells are filled with 50 μl DMEM medium containing 1% DMSO. The cells are then incubated with the substances for 72 hours at 37° C. in a humidified atmosphere containing 5% carbon dioxide. To determine the viability of the cells, 10 μl of an Alamar Blue solution (Biosource) are added and the fluorescence is measured at an extinction of 544 nm and an emission of 590 nm. For the calculation of the cell viability the emission value from untreated cells is set as 100% viability and the emission rates of treated cells are set in relation to the values of untreated cells. Viabilities are expressed as % values. The Graphpad Prism program (GraphPad Software, Inc) is used for the calculation of EC50 values for anti-proliferative/cytotoxic activity out of the obtained dose-response curves.\nEach compound dilution is tested as triplicates. Wells containing untreated control cells are filled with 50 μl DMEM medium containing 1% DMSO. The cells are then incubated with the substances for 72 hours at 37° C. in a humidified atmosphere containing 5% carbon dioxide. To determine the viability of the cells, 10 μl of an Alamar Blue solution (Biosource) are added and the fluorescence is measured at an extinction of 544 nm and an emission of 590 nm. For the calculation of the cell viability the emission value from untreated cells is set as 100% viability and the emission rates of treated cells are set in relation to the values of untreated cells. Viabilities are expressed as % values. The Graphpad Prism program is used for the calculation of EC50 values out of the obtained dose-response curves. Viability is compared of proliferating cells grown in the absence of the inducer Ponasterone A, versus viability of cells arrested by the expression of ectopic p27Kip1 induced by Ponasterone A.", "values": [{"smiles": "CN(C)CCCN(C)C(=O)N1N=C2c3cc(F)ccc3OC[C@@H]2[C@@H]1c1cccc(O)c1", "note": "(racemic) [Example 6, (3RS,3aRS)-8-Fluoro-3-(3-hydroxy-phenyl)-3a,4-dihydro-3H-chromeno[4,3-c]pyrazole-2-carboxylic acid (3-dimethylamino-propyl)-methyl-amide]", "EC50": "≤ 0.1"}, {"smiles": "CC(=O)N1CCN(CCN(C)C(=O)N2N=C3c4cc(F)ccc4OC[C@@H]3[C@@H]2c2ccccc2)CC1", "note": "(racemic) [Example 29, (3RS,3aRS)-8-Fluoro-3-phenyl-3a,4-dihydro-3H-chromeno[4,3-c]pyrazole-2-carboxylic acid [2-(4-acetyl-piperazin-1-yl)-ethyl]methyl-amide]", "EC50": "0.1 to 1"}, {"smiles": "CNCCCN(C)C(=O)N1N=C2c3cc(F)ccc3OC[C@@H]2[C@@H]1c1ccccc1", "note": "(racemic) [Example 22, (3RS,3aRS)-8-Fluoro-3-phenyl-3a,4-dihydro-3H-chromeno[4,3-c]pyrazole-2-carboxylic acid methyl-(3-methylamino-propyl)-amide]", "EC50": "≤ 0.1"}, {"smiles": "CN(C)CCN(C)C(=O)N1N=C2c3cc(F)ccc3OC[C@@H]2[C@@H]1c1ccccc1", "note": "(racemic) [Example 19, (3RS,3aRS)-8-Fluoro-3-phenyl-3a,4-dihydro-3H-chromeno[4,3-c]pyrazole-2-carboxylic acid (2-dimethylamino-ethyl)-methyl-amide]", "EC50": "≤ 0.1"}, {"smiles": "CN(C(=O)N1N=C2c3cc(F)ccc3OC[C@H]2[C@H]1c1cccc(O)c1)C1CCNCC1", "note": "[Example 27a, (3S,3aS)-8-Fluoro-3-(3-hydroxy-phenyl)-3a,4-dihydro-3H-chromeno[4,3-c]pyrazole-2-carboxylic acid methyl-piperidin-4-yl-amide]", "EC50": "≤ 0.1"}, {"smiles": "CCN(CCO)CCCN(C)C(=O)N1N=C2c3cc(F)ccc3OC[C@@H]2[C@@H]1c1ccccc1", "note": "(racemic) [Example 59, (3RS,3aRS)-8-Fluoro-3-phenyl-3a,4-dihydro-3H-chromeno[4,3-c]pyrazole-2-carboxylic acid {3-[ethyl-(2-hydroxy-ethyl)-amino]-propyl}-methyl-amide]", "EC50": "≤ 0.1"}, {"smiles": "CCN(CC)CCN(C)C(=O)N1N=C2c3cc(F)ccc3OC[C@H]2[C@H]1c1ccccc1", "note": "(racemic) [Example 45, (3SR,3aSR)-8-Fluoro-3-phenyl-3a,4-dihydro-3H-chromeno[4,3-c]pyrazole-2-carboxylic acid (2-diethylamino-ethyl)-methyl-amide]", "EC50": "≤ 0.1"}, {"smiles": "CN(C(=O)N1N=C2c3cc(F)ccc3OC[C@H]2[C@H]1c1ccccc1)C1CCNCC1", "note": "[Example 16a, (3S,3aS)-8-Fluoro-3-phenyl-3a,4-dihydro-3H-chromeno[4,3-c]pyrazole-2-carboxylic acid methyl-piperidin-4-yl-amide]", "EC50": "≤ 0.1"}, {"smiles": "CN(CCN1CCCC1)C(=O)N1N=C2c3cc(F)ccc3OC[C@@H]2[C@@H]1c1ccccc1", "note": "(racemic) [Example 28, (3RS,3aRS)-8-Fluoro-3-phenyl-3a,4-dihydro-3H-chromeno[4,3-c]pyrazole-2-carboxylic acid methyl-(2-pyrrolidin-1-yl-ethyl)-amide]", "EC50": "0.1 to 1"}, {"smiles": "CCN(CC)CCCN(C)C(=O)N1N=C2c3cc(F)ccc3OC[C@H]2[C@H]1c1ccccc1", "note": "(racemic) [Example 46, (3SR,3aSR)-8-Fluoro-3-phenyl-3a,4-dihydro-3H-chromeno[4,3-c]pyrazole-2-carboxylic acid (3-diethylamino-propyl)-methyl-amide]", "EC50": "≤ 0.1"}, {"smiles": "CN(C)C(=O)N1N=C2c3cc(F)ccc3OC[C@H]2[C@@H]1c1cccc(O)c1", "note": "(single isomer, unassigned) [Example 2b, (−)-cis-8-Fluoro-3-(3-hydroxy-phenyl)-3a,4-dihydro-3H-chromeno[4,3-c]pyrazole-2-carboxylic acid dimethylamide]", "EC50": "≤ 0.1"}, {"smiles": "CN(CCNC1CC1)C(=O)N1N=C2c3cc(F)ccc3OC[C@H]2[C@H]1c1ccccc1", "note": "(racemic) [Example 60, (3SR,3aSR)-8-Fluoro-3-phenyl-3a,4-dihydro-3H-chromeno[4,3-c]pyrazole-2-carboxylic acid (2-cyclopropylamino-ethyl)-methyl-amide]", "EC50": "0.1 to 1"}, {"smiles": "CN(CCCNC(C)(C)C)C(=O)N1N=C2c3cc(F)ccc3OC[C@H]2[C@H]1c1ccccc1", "note": "(racemic) [Example 43, (3SR,3aSR)-8-Fluoro-3-phenyl-3a,4-dihydro-3H-chromeno[4,3-c]pyrazole-2-carboxylic acid (3-tert-butylamino-propyl)-methyl-amide]", "EC50": "0.1 to 1"}, {"smiles": "CN1CCC(N(C)C(=O)N2N=C3c4cc(F)ccc4OC[C@H]3[C@H]2c2ccccc2)CC1", "note": "[Example 9a, (3S,3aS)-8-Fluoro-3-phenyl-3a,4-dihydro-3H-chromeno[4,3-c]pyrazole-2-carboxylic acid methyl-(1-methyl-piperidin-4-yl)-amide]", "EC50": "≤ 0.1"}, {"smiles": "C#CCN(C)CCN(C)C(=O)N1N=C2c3cc(F)ccc3OC[C@H]2[C@H]1c1ccccc1", "note": "(racemic) [Example 64, (3SR,3aSR)-8-Fluoro-3-phenyl-3a,4-dihydro-3H-chromeno[4,3-c]pyrazole-2-carboxylic acid methyl-[2-(methyl-prop-2-ynyl-amino)-ethyl]-amide]", "EC50": "0.1 to 1"}, {"smiles": "CC(C)NCCN(C)C(=O)N1N=C2c3cc(F)ccc3OC[C@H]2[C@H]1c1ccccc1", "note": "(racemic) [Example 39, (3SR,3aSR)-8-Fluoro-3-phenyl-3a,4-dihydro-3H-chromeno[4,3-c]pyrazole-2-carboxylic acid (2-isopropylamino-ethyl)-methyl-amide]", "EC50": "≤ 0.1"}, {"smiles": "CN(C(=O)N1N=C2c3cc(F)ccc3OC[C@@H]2[C@@H]1c1cccc(O)c1)C1CCNCC1", "note": "(racemic) [Example 27, (3RS,3aRS)-8-Fluoro-3-(3-hydroxy-phenyl)-3a,4-dihydro-3H-chromeno[4,3-c]pyrazole-2-carboxylic acid methyl-piperidin-4-yl-amide]", "EC50": "≤ 0.1"}, {"smiles": "CN(CCCN1CCCC1)C(=O)N1N=C2c3cc(F)ccc3OC[C@H]2[C@H]1c1ccccc1", "note": "(racemic) [Example 34, (3SR,3aSR)-8-Fluoro-3-phenyl-3a,4-dihydro-3H-chromeno[4,3-c]pyrazole-2-carboxylic acid methyl-(3-pyrrolidin-1-yl-propyl)-amide]", "EC50": "≤ 0.1"}, {"smiles": "CN(CCCN1CCC1)C(=O)N1N=C2c3cc(F)ccc3OC[C@H]2[C@H]1c1ccccc1", "note": "(racemic) [Example 38, (3SR,3aSR)-8-Fluoro-3-phenyl-3a,4-dihydro-3H-chromeno[4,3-c]pyrazole-2-carboxylic acid (3-azetidin-1-yl-propyl)-methyl-amide]", "EC50": "≤ 0.1"}, {"smiles": "CN1CCC(N(C(=O)N2N=C3c4cc(F)ccc4OC[C@@H]3[C@@H]2c2cccc(O)c2)C2CC2)CC1", "note": "(racemic) [Example 5, (3RS,3aRS)-8-Fluoro-3-(3-hydroxy-phenyl)-3a,4-dihydro-3H-chromeno[4,3-c]pyrazole-2-carboxylic acid cyclopropyl-(1-methyl-piperidin-4-yl)-amide]", "EC50": "0.1 to 1"}, {"smiles": "CN(CCCNCC1CC1)C(=O)N1N=C2c3cc(F)ccc3OC[C@H]2[C@H]1c1ccccc1", "note": "(racemic) [Example 54, (3SR,3aSR)-8-Fluoro-3-phenyl-3a,4-dihydro-3H-chromeno[4,3-c]pyrazole-2-carboxylic acid [3-(cyclopropylmethyl-amino)-propyl]-methyl-amide]", "EC50": "0.1 to 1"}]}]}
